Measurements reported in patent publication US5196427A, “3-aryl-4(3H) quinazolinone CCK antagonists and pharmaceutical formulations thereof” (Eli Lilly and Company, priority 1991, dated 1993).

These compounds were tested against T1, Brain CCK receptor (Mus musculus, UniProt P56481) (assay: Brain CCK receptor binding (mouse brain membranes, 125I-CCK-8 sulfate)). Settings: not given.
T1 construct: from tissue; host or cells: forebrain membranes of male CF-1 mice
T1 sequence (P56481 1-453): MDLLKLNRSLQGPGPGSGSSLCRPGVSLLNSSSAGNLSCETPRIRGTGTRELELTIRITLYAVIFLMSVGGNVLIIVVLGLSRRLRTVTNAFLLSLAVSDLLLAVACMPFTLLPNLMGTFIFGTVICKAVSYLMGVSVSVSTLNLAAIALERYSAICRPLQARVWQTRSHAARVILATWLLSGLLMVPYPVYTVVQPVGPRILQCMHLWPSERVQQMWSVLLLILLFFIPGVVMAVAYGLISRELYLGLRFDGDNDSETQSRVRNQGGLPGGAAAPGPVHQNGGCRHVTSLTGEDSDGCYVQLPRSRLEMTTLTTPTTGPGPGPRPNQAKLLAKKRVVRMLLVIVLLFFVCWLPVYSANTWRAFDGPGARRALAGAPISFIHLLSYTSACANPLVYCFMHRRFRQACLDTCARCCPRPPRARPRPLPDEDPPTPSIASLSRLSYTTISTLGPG
Description: Brain CCK receptor binding was performed using mouse brain membranes according to the method of Chang and Lotti (Proc. Natl. Acad. Sci. 83: 4923-4926, 1986). Male CF-1 mice, 23-25 g were sacrificed by cervical dislocation, the forebrain removed and placed in ice cold 50 mM Tris buffer, pH 7.4. The tissue was homogenized in 100 volumes of the Tris buffer with a Brinkman Polytron or Tekmar Tissumizer and then centrifuged at 40,000 g for 10 min. Pellets were resuspended in Tris buffer, centrifuged as above and then resuspended in 100 volumes of assay buffer, pH 6.5 (20 mM N-2-hydroxyethyl-piperazine-N'-2-ethane sulfonic acid (HEPES), 1 mM ethylene glycol bis(2-aminoethyl ether-N,N,N',N'-tetraaceticacid) (EGTA), 5 mM MgCl2, 130 mM NaCl, and 0.25 mg/ml bacitracin). The binding assay consisted of 50 μL of compound (or buffer for total binding), 50 μL of ^125 I-CCK-8 sulfate (20 pM) (Amersham IM-159), 200 μL of assay buffer and 200 μL of homogenate (80-120 μg protein). The samples were incubated at room temperature (25°) for 2 hours, and they were then filtered through GF/B glass fiber filters (soaked in wash buffer for 2 hours before use) using a 48 well Brandel cell harvester designed for receptor binding. The filters were washed twice with 3 ml of 50 mM Tris buffer, pH 7.4, containing 0.01% BSA and then counted for radioactivity in plastic tubes with a Micromedic 10/600 automatic gamma counter.
Compounds were dissolved in dimethyl sulfoxide (DMSO) at a concentration of 10 mM and then further diluted with assay buffer. […] IC-50 values of displacement curves were determined using 7 concentrations of compound and were calculated using the ALLFIT computer program of DeLean, Munson and Rodbard (Am. J. Physiol. 235: E97-E102, 1978). Non-specific binding was determined as the displacement of the radioligand by 100 nM CCK-8 sulfate.

SMILES	IC50 [nM]
COc1ccc(-n2c(CCc3c[nH]c4ccccc34)nc3ccccc3c2=O)cc1 [Example 51]	98 ± 7

Same assay, conditions: mouse brain membranes; 1 μM

inhibition at 1 µM [%]	SMILES
57	COc1cccc(-n2c(CC(c3ccccc3)c3c[nH]c4ccccc34)nc3ccccc3c2=O)c1 (centres unmarked) [Example 5, 2-[2-Phenyl-2-(3-indolyl)ethyl]-3-(3-methoxyphenyl)-4-(3H)quinazolinone]
85	CCCc1cc(-n2c(CCc3c[nH]c4ccc(Br)cc34)nc3ccccc3c2=O)ccc1OC [Example 43]
90	CC(C)Oc1cccc(-n2c(CCc3c[nH]c4ccc(Br)cc34)nc3ccc(Cl)cc3c2=O)c1 [Example 66]

Same assay, conditions: mouse brain membranes; 10 μM; read-out: Brain % inhibition in binding assay

inhibition at 10 µM [%]	SMILES
35	O=c1c2ccccc2nc(CCc2c[nH]c3ccccc23)n1-c1ccccc1C(F)(F)F [Example 11]
70	COc1cccc(-n2c(CC(Cc3ccccc3)c3c[nH]c4ccccc34)nc3ccccc3c2=O)c1 (centres unmarked) [Example 65]

Same assay, conditions: mouse brain membranes; Mean ± SEM, n = 3; values without SEM n = 1; read-out: Brain IC50

IC50 [nM]	SMILES
410	COc1ccc2[nH]cc(CCc3nc4ccccc4c(=O)n3-c3ccccc3)c2c1 [Example 3, 2-[2-(5-methoxyindol-3-yl)-ethyl]-3-phenyl-4-(3H)quinazolinone]
110 ± 10	COc1cccc(-n2c(CCc3c[nH]c4ccc(F)cc34)nc3ccccc3c2=O)c1 [Example 18]
47 ± 3	COc1cccc(-n2c(CCc3c[nH]c4ccc(Cl)cc34)nc3ccccc3c2=O)c1 [Example 19]
55 ± 3	COc1cccc(-n2c(CCc3c[nH]c4ccc(C)cc34)nc3ccccc3c2=O)c1 [Example 21]
67 ± 5	COc1cccc(-n2c(CCc3c[nH]c4ccc(OC)cc34)nc3ccccc3c2=O)c1 [Example 22]
33	CCOc1cccc(-n2c(CCc3c[nH]c4ccc(OC)cc34)nc3ccccc3c2=O)c1 [Example 24]
26 ± 0.3	CC(C)Oc1cccc(-n2c(CCc3c[nH]c4ccccc34)nc3ccccc3c2=O)c1 [Example 25]
19 ± 5	CC(C)Oc1cccc(-n2c(CCc3c[nH]c4ccc(Cl)cc34)nc3ccccc3c2=O)c1 [Example 26]
19	COc1ccc2[nH]cc(CCc3nc4ccccc4c(=O)n3-c3cccc(OC(C)C)c3)c2c1 [Example 27]
46 ± 8	CSc1cccc(-n2c(CCc3c[nH]c4ccc(Br)cc34)nc3ccccc3c2=O)c1 [Example 32]
34	COc1ccc2[nH]cc(CCc3nc4ccccc4c(=O)n3-c3cccc(SC)c3)c2c1 [Example 33]
230	O=c1c2ccccc2nc(CCc2c[nH]c3ccc(Cl)cc23)n1-c1cccc(C(F)(F)F)c1 [Example 35]
16 ± 1	CN(C)c1cccc(-n2c(CCc3c[nH]c4ccc(Br)cc34)nc3ccccc3c2=O)c1 [Example 38]
13	CN(C)c1cccc(-n2c(CCc3c[nH]c4ccc(Cl)cc34)nc3ccccc3c2=O)c1 [Example 39]
29	COc1ccc(-n2c(CCc3c[nH]c4ccc(Br)cc34)nc3ccccc3c2=O)cc1C [Example 45]
28 ± 4	CCc1ccc(-n2c(CCc3c[nH]c4ccc(Br)cc34)nc3ccccc3c2=O)cc1 [Example 47]
37 ± 13	CC(C)c1ccc(-n2c(CCc3c[nH]c4ccc(Br)cc34)nc3ccccc3c2=O)cc1 [Example 48]
38	CC(C)c1ccc(-n2c(CCc3c[nH]c4ccc(Cl)cc34)nc3ccccc3c2=O)cc1 [Example 49]
930	CCCCc1ccc(-n2c(CCc3c[nH]c4ccc(Br)cc34)nc3ccccc3c2=O)cc1 [Example 50]
88 ± 10	CCOc1ccc(-n2c(CCc3c[nH]c4ccc(Br)cc34)nc3ccccc3c2=O)cc1 [Example 53]
1200	CCCOc1ccc(-n2c(CCc3c[nH]c4ccc(Br)cc34)nc3ccccc3c2=O)cc1 [Example 54]
110 ± 20	CC(C)Oc1ccc(-n2c(CCc3c[nH]c4ccc(Br)cc34)nc3ccccc3c2=O)cc1 [Example 55]
1100	CCCCOc1ccc(-n2c(CCc3c[nH]c4ccc(Br)cc34)nc3ccccc3c2=O)cc1 [Example 56]
33 ± 6	CN(C)c1ccc(-n2c(CCc3c[nH]c4ccc(Br)cc34)nc3ccccc3c2=O)cc1 [Example 57]
87	CN(C)c1ccc(-n2c(CCc3c[nH]c4ccc(Cl)cc34)nc3ccccc3c2=O)cc1 [Example 58]
47	CCN(CC)c1ccc(-n2c(CCc3c[nH]c4ccc(Br)cc34)nc3ccccc3c2=O)cc1 [Example 59]
37 ± 10	CSc1ccc(-n2c(CCc3c[nH]c4ccc(Br)cc34)nc3ccccc3c2=O)cc1 [Example 60]

Further lines, the compound ahead of its results:

SMILES	IC50 [nM]
O=c1c2ccccc2nc(CCc2c[nH]c3cc(Cl)ccc23)n1-c1ccccc1 [Example 7]	1100
O=c1c2ccccc2nc(CCc2c[nH]c3ccc(Br)cc23)n1-c1cccc(C(F)(F)F)c1 [Example 34]	230 ± 30
Cc1ccc2[nH]cc(CCc3nc4ccccc4c(=O)n3-c3cccc(C(F)(F)F)c3)c2c1 [Example 36]	190
COc1ccc2[nH]cc(CCc3nc4ccccc4c(=O)n3-c3cccc(C(F)(F)F)c3)c2c1 [Example 37]	130
O=c1c2ccccc2nc(CCc2c[nH]c3ccc(Br)cc23)n1-c1cccc(N2CCCC2)c1 [Example 40]	22 ± 3
COc1cc(OC)cc(-n2c(CCc3c[nH]c4ccccc34)nc3ccccc3c2=O)c1 [Example 41]	1800
O=c1c2ccccc2nc(CCc2c[nH]c3ccccc23)n1-c1ccc2c(c1)OCO2 [Example 42]	190 ± 40
CCOc1ccc(-n2c(CCc3c[nH]c4ccc(Br)cc34)nc3ccccc3c2=O)cc1C [Example 44]	65
COc1ccc(-n2c(CCc3c[nH]c4ccc(Br)cc34)nc3ccccc3c2=O)cc1OC [Example 46]	130 ± 30
COc1cccc(-n2c(CC(C)c3c[nH]c4ccc(Br)cc34)nc3ccccc3c2=O)c1 (centres unmarked) [Example 63]	100

Same assay, conditions: read-out: Brain % inhibition in binding assay, mouse brain membranes; 10 μM

SMILES	inhibition at 10 µM [%]
O=c1c2ccccc2nc(Cc2c[nH]c3ccccc23)n1-c1ccccc1 [Example 2, 2-(3-Indolylmethyl)-3-phenyl-4-(3H)quinazolinone]	36
O=c1c2ccccc2nc(CCc2c[nH]c3ccccc23)n1-c1ccccc1F [Example 8]	75
O=c1c2ccccc2nc(CCc2c[nH]c3ccccc23)n1-c1ccccc1Cl [Example 9]	44
COc1ccccc1-n1c(CCc2c[nH]c3ccccc23)nc2ccccc2c1=O [Example 10]	74
